The results in this text go back to patent US6586559B2, “Polyamide oligomers” (Inex Pharmaceuticals Corporation, priority 1997, dated 2003).

The nature of the data set: Encapsulation of cationic peptide IB510 in liposomes (extrusion, BioGel column, LSC/HPLC). The following applies: ATTA8-DSPE versus PEG-PE. The data set is classed as physicochemical. The method, then:
Lipid films (total of 100 mg of lipid) were prepared by dissolving appropriate quantities of individual lipids in 200 to 500 μL of chloroform, mixing the lipids, then removing the chloroform under high vacuum. Specifically, prepared lipid films were sphingomyelin/cholesterol/PEG-PE (50/45/5 molar ratios; prepared from 53.2 mg sphingomyelin, 26 mg cholesterol and 20 mg PEG-PE) and sphingomyelin/cholesterol/ATTA8-DSPE (50/45/5 molar ratios; prepared from 53.2 mg sphingomyelin, 26 mg cholesterol and 20 mg ATTA8-DSPE) and contained 1 μCi of 3H-cholesterylhexadecylether as a radiolabelled tracer. […] 5 μl were removed for phosphate assay to quantify the phospholipid and for liquid scintillation counting (LSC). […]
Aliquots of 200-400 μL of the large unilamellar vesicles containing IB510 were passed over a 20 cm×1 cm BioGel A-15 m (50-100 mesh) column pre-equilibrated in 150 mM NaCl and 20 mM Hepes (pH 7.5). […] The concentrations of liposomes and peptide were quantified by LSC and HPLC, respectively. Encapsulation efficiency was calculated from the post-column peptide/lipid ratio divided by the precolumn peptide/lipid ratio. […]

In the case of “Octa-(14-amino-3,6,9,12-tetraoxatetradecanoic acid) [ATTA8]”, the “encapsulation efficiency (comparison in words)” value was “superior to PEG”.

Take “N-(ω-azido-octa-(14′-amino-3′,6′,9′,12′-tetraoxatetradecanoyl))-1,2-distearoyl-sn-glycero-3-phosphoethanolamine [ATTA8-DSPE]”: the “encapsulation efficiency (comparison in words)” value is given as “superior to PEG-PE”.
